Assay results published in paper PMC8533299, “Synthesis, In Silico Study, and Anti-Cancer Activity of Thiosemicarbazone Derivatives” (Biomedicines, 2021).
Converted amounts (≈) assume the structure as drawn. “And” between values parts separate entries of the source, which are not always exact repeats. Equal values may be shown once.

Tests used:
B16-F0 (Mouse melanoma) = experiment: MTT test on B16-F0 cells; assay type: cell-based; conditions: for IC50: Mus musculus, B16F0, B16-F0 cells, MTT, till 48 h
Method: (§1) The in vitro anticancer activities of the synthesized compounds were conducted using different cancerous and non-cancerous cell lines viz B16-F0 (Mouse melanoma), mouse Ehrlich Ascites Carcinoma (EAC), MCF-7 (Human breast cancer), MCF-10A (Human breast epithelial cells), and NIH/3T3 (Mouse fibroblast cells). All cell lines were procured from the National Centre for Cell Science, Pune, India. The procured cells were cultured in a six-well culture plate with Dulbecco’s Modified Eagle’s Medium (DMEM) supplemented with 10% fetal bovine serum in a humid CO2 incubator with 5% carbon dioxide at 37 °C.
(§2) The anti-cancer effect and cytotoxicity of both 3-MBTSc and 4-NBTSc compounds were evaluated against different cancerous (MCF-7, EAC, B16-F0 cells) and noncancerous cells (MCF-10A, NIH-3T3 cells) using MTT test. In brief, the stock solutions of both the tested compounds were prepared by dissolving 1 mg of each compound in 1 mL of DMSO separately. Then, four different concentrations (5, 10, 12, and 20 µg/mL) of both compounds were used during the test along with the negative control. Also, 10 μg/mL of doxorubicin (Dox) was used as the positive control during the experiment. Both untreated and treated cells were incubated for next 24 and 48 h. Then, all the steps during the whole experiment were carried out by our earlier reported procedure. Later, the absorbance values were measured by an ELISA reader (Biorad, Hercules, CA, USA) at 570 nm wavelength using secondary wavelength as a reference at 620 nm and the percentages of cell viability was calculated using the following formula [59, 60, 61]. Cell viability (%)= Mean absorbance of treated cells/Mean absorbance of untreated cells × 100
(§3) Based on the cell viability data, the IC50 values of both compounds were calculated on different cancer cells by plotting their corresponding dose-responsive graphs.
(§4) The obtained data were statistically analyzed. The descriptive analysis was done and the IC50 values were calculated by fitting the sigmoidal dose responsive graph using GraphPad Prism (GraphPad Software, Inc., La Jolla, CA, USA). […]

[1] = test system: MCF-7 (Human breast cancer); experiment: MTT test on MCF-7 cells; assay type: cell-based; conditions: MCF7, till 48 h
Method: as §1, §2, §3, §4

MCF-7, EAC, B16-F0 cells = experiment: MTT test, cancer cell lines overall; assay type: cell-based; conditions: over the cell lines tested; read-out: IC50 (range over treated cells)
Method: as §1
The anti-cancer effect and cytotoxicity of both 3-MBTSc and 4-NBTSc compounds were evaluated against different cancerous (MCF-7, EAC, B16-F0 cells) and noncancerous cells (MCF-10A, NIH-3T3 cells) using MTT test. […] Later, the absorbance values were measured by an ELISA reader (Biorad, Hercules, CA, USA) at 570 nm wavelength using secondary wavelength as a reference at 620 nm and the percentages of cell viability was calculated using the following formula [59, 60, 61]. Cell viability (%)= Mean absorbance of treated cells/Mean absorbance of untreated cells × 100
as §3
The obtained data were statistically analyzed. […]

[2] = test system: MCF-10A (Human breast epithelial cells); experiment: MTT cytotoxicity test on MCF-10A cells; assay type: cell-based; conditions: 48 h
Method: as §1, §2

[3] = MTT cytotoxicity test on MCF-10A cells; assay type: cell-based, Human; conditions: human, MCF-10A breast epithelial cells
Method: as §1, §2

[4] = test system: gene expression in EAC cells; experiment: RT-qPCR gene expression in EAC cells; assay type: cell-based, mouse
Method: Total mRNA was isolated and extracted by Trizol reagent as described in an earlier method. RevertAid First Strand cDNA synthesis kit (Thermo Fisher Scientific, Waltham, MA, USA) was used to synthesize cDNA in a total reaction volume of 20 μL containing oligo-dT primers, RiboLock RNase inhibitor, and reverse transcriptase. Gene-specific primers were used to amplify cDNAs in RT-qPCR machine (Applied Biosystems, Waltham, MA, USA).

[5] = MTT cytotoxicity test on NIH-3T3 cells; assay type: cell-based, Mouse; conditions: mouse, NIH/3T3 fibroblast cells
Method: as §1, §2

[6] = test system: NIH/3T3 (Mouse fibroblast cells); experiment: MTT cytotoxicity test on NIH-3T3 cells; assay type: cell-based; conditions: 48 h
Method: as §1, §2

[7] = test system: mouse Ehrlich Ascites Carcinoma (EAC); experiment: MTT test on EAC cells; assay type: cell-based; conditions: for IC50: Mus musculus, Ehrlich, EAC cells, MTT, till 48 h
Method: as §1, §2, §3, §4

[8] = EAC cells treated, GAPDH housekeeping gene
[9] = EAC cells, difference of RQ values

IC50 (B16-F0 (Mouse melanoma))	IC50 [1]	IC50 (MCF-7, EAC, B16-F0 cells)	SMILES	toxicity [2]	viability at 48 h [3]	BCl2 Treated (RQ value) [4, 8]	BRCA1 Treated (RQ value) [4, 8]	Bax Treated (RQ value) [4, 8]	Caspase-3 Treated (RQ value) [4, 8]	Dmp1 Treated (RQ value) [4, 8]	Fos Treated (RQ value) [4, 8]	MTS 1 Treated (RQ value) [4, 8]	Mdm2 Treated (RQ value) [4, 8]	PKC Treated (RQ value) [4, 8]	PTEN Treated (RQ value) [4, 8]	RAS Treated (RQ value) [4, 8]	p19 Arf Treated (RQ value) [4, 8]	p21 Treated (RQ value) [4, 8]	pRB Treated (RQ value) [4, 8]	BCl2 Fold Change (EAC treated-EAC untreated) [4, 9]	other results
7.129 ± 0.012 µg/mL (≈ 31.8 µM)	7.102 ± 0.01 µg/mL (≈ 31.7 µM)	2.8 to 7.59 µg/mL (≈ 12.5 to 33.8 µM)	NC(=S)N[N-][CH+]c1ccc([N+](=O)[O-])cc1 [4-NBTSc, 4-Nitrobenzaldehyde thiosemicarbazone]	less than 20%	> 80%	6.195 ± 0.021	7.195 ± 0.021	2.945 ± 0.035	4.23 ± 0.028	4.1 ± 0.014	3.095 ± 0.021	1.945 ± 0.035	4.955 ± 0.021	7.13 ± 0.028	8.65 ± 0.028	3.13 ± 0.028	4.605 ± 0.021	3.125 ± 0.035	6.095 ± 0.035	3.105 fold	p53 Treated (RQ value) [4, 8]: 3.165 ± 0.064; BRCA1 Fold Change (EAC treated-EAC untreated) [4, 9]: 5.135 fold and 5.13 fold; Bax Fold Change (EAC treated-EAC untreated) [4, 9]: -0.105 fold; Caspase-3 Fold Change (EAC treated-EAC untreated) [4, 9]: 1.33 fold; Dmp1 Fold Change (EAC treated-EAC untreated) [4, 9]: 1.95 fold; MTS 1 Fold Change (EAC treated-EAC untreated) [4, 9]: 0.04 fold; Mdm2 Fold Change (EAC treated-EAC untreated) [4, 9]: -0.25 fold; PTEN Fold Change (EAC treated-EAC untreated) [4, 9]: 7.42 fold; p19 Arf Fold Change (EAC treated-EAC untreated) [4, 9]: 1.855 fold; p21 Fold Change (EAC treated-EAC untreated) [4, 9]: 2.13 fold; p53 Fold Change (EAC treated-EAC untreated) [4, 9]: 2.105 fold; pRB Fold Change (EAC treated-EAC untreated) [4, 9]: 4.19 fold; viability at 48 h [5]: > 80%; toxicity [6]: less than 20%; IC50 [7]: 3.832 ± 0.014 µg/mL (≈ 17.1 µM)
2.904 ± 0.013 µg/mL (≈ 13.9 µM)	2.821 ± 0.008 µg/mL (≈ 13.5 µM)	2.82 to 14.2 µg/mL (≈ 13.5 to 68.1 µM)	COc1cccc(C=NNC(N)=S)c1 [3-MBTSc, 3-Methoxybenzaldehyde thiosemicarbazone]	less than 20%	> 80%	7.195 ± 0.021	4.305 ± 0.021	5.195 ± 0.021	3.095 ± 0.035	6.9 ± 0.028	4.22 ± 0.014	1.1 ± 0.028	4.145 ± 0.035	7.105 ± 0.021	4.205 ± 0.035	3.215 ± 0.021	4.73 ± 0.028	5.19 ± 0.028	3.575 ± 0.021	4.105 fold	inhibition of cell growth (B16-F0 (Mouse melanoma); B16-F0 cell line, MTT assay): 50.42%; BRCA1 Fold Change (EAC treated-EAC untreated) [4, 9]: 2.245 fold; Bax Fold Change (EAC treated-EAC untreated) [4, 9]: 2.145 fold; Caspase-3 Fold Change (EAC treated-EAC untreated) [4, 9]: 0.195 fold; Dmp1 Fold Change (EAC treated-EAC untreated) [4, 9]: 4.75 fold; Fos Fold Change (EAC treated-EAC untreated) [4, 9]: -3.92 fold; MTS 1 Fold Change (EAC treated-EAC untreated) [4, 9]: -0.805 fold; Mdm2 Fold Change (EAC treated-EAC untreated) [4, 9]: -1.06 fold; PKC Fold Change (EAC treated-EAC untreated) [4, 9]: -3.03 fold; PTEN Fold Change (EAC treated-EAC untreated) [4, 9]: 2.975 fold; RAS Fold Change (EAC treated-EAC untreated) [4, 9]: -3.725 fold; p19 Arf Fold Change (EAC treated-EAC untreated) [4, 9]: 1.98 fold; p21 Fold Change (EAC treated-EAC untreated) [4, 9]: 4.195 fold; p53 Fold Change (EAC treated-EAC untreated) [4, 9]: 2.1 fold; pRB Fold Change (EAC treated-EAC untreated) [4, 9]: 1.67 fold; viability at 48 h [5]: > 80%; toxicity [6]: less than 20%; inhibition of cell growth ([7]; EAC cell line, MTT assay): 50.31%; IC50 [7]: 3.355 ± 0.012 µg/mL (≈ 16 µM)
